Earlier results in patent publication US20080003278A1, “Food products and dietary supplements for improving mental performance” (priority 2006, published 2008).

Tested on: epileptic seizures
Settings: thirty-one patients participating in the study

Structure (SMILES): CCOC(=O)C1=C[C@]2(CC)CCCN3CCc4c(n1c1ccccc41)[C@@H]32 [vinpocetine]
- patients in whom the frequency of epileptic seizures was reduced and, in some cases, seizures completely eliminated: twenty of the thirty-one
